Reference: ChEMBL document CHEMBL1201862, “PubChem BioAssay data set” (2004)
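Following 48 hours of exposure in 96-well plates, responses at five concentrations were used to interpolate endpoints linearly. Abbreviation: GI50, concentration required for 50% inhibition of growth.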 Active and inactive are the calls of the source. Cut-off read from the data, not from the text of the source: active = GI50 up to about 1.1 µM and inactive = higher.

Assays:
Assay in all cases: inhibition of tumour cell growth, NCI panel, 48 h
CAKI-1 = tested on: CAKI-1
SK-MEL-2 = tested on: SK-MEL-2
HCC 2998 = tested on: HCC 2998
RPMI-8226 = tested on: RPMI-8226
SR = tested on: SR
EKVX = tested on: EKVX
NCI-H460 = tested on: NCI-H460
OVCAR-3 = tested on: OVCAR-3
M14 = tested on: M14
HCT-15 = tested on: HCT-15
OVCAR-5 = tested on: OVCAR-5
DU-145 = tested on: DU-145
NCI-H522 = tested on: NCI-H522
NCI-H226 = tested on: NCI-H226
UACC-62 = tested on: UACC-62
SNB-75 = tested on: SNB-75
SK-OV-3 = tested on: SK-OV-3
IGROV-1 = tested on: IGROV-1
SK-MEL-28 = tested on: SK-MEL-28
A498 = tested on: A498

SMILES	GI50 (CAKI-1)	GI50 (SK-MEL-2)	GI50 (HCC 2998)	GI50 (RPMI-8226)	GI50 (SR)	GI50 (EKVX)	GI50 (NCI-H460)	GI50 (OVCAR-3)	GI50 (M14)	GI50 (HCT-15) [µM]	GI50 (OVCAR-5)	GI50 (DU-145)	GI50 (NCI-H522)	GI50 (NCI-H226)	GI50 (UACC-62)	GI50 (SNB-75)	GI50 (SK-OV-3)	GI50 (IGROV-1)	GI50 (SK-MEL-28)	GI50 (A498)
NC(=S)N/N=C1\CCCCc2ccccc21	> 10 µM (inactive)	> 10 µM (inactive)	> 10 µM (inactive)	> 10 µM (inactive)	> 10 µM (inactive)	> 10 µM (inactive)	> 10 µM (inactive)	> 10 µM (inactive)	> 10 µM (inactive)	> 10	> 10 µM (inactive)	> 10 µM (inactive)	> 10 µM (inactive)	> 10 µM (inactive)						
NNC(=O)c1nn[nH]c1C(=O)NN	15.8 µM (inactive)	> 100 µM (inactive)	> 100 µM (inactive)	> 100 µM (inactive)	> 100 µM (inactive)		> 100 µM (inactive)	> 100 µM (inactive)	> 100 µM (inactive)	> 100	> 100 µM (inactive)	> 100 µM (inactive)								
CCOC(=O)Cc1ccc(Nc2nc3ccccc3nc2C(=O)OCC)cc1	83.6 µM (inactive)	94 µM (inactive)			> 100 µM (inactive)	38.4 µM (inactive)	44.6 µM (inactive)	> 100 µM (inactive)	> 100 µM (inactive)	> 100	> 100 µM (inactive)	95.9 µM (inactive)	89.9 µM (inactive)	4.8 µM (inactive)	45.2 µM (inactive)	17.9 µM (inactive)	54.1 µM (inactive)	57.5 µM (inactive)	> 100 µM (inactive)	20.7 µM (inactive)
CCC#CCCCCCCCCC(F)C(=O)O (stereo not drawn)	> 100 µM (inactive)	> 100 µM (inactive)	> 100 µM (inactive)	> 100 µM (inactive)		> 100 µM (inactive)		> 100 µM (inactive)	> 100 µM (inactive)	> 100	> 100 µM (inactive)	> 100 µM (inactive)	> 100 µM (inactive)	> 100 µM (inactive)		> 100 µM (inactive)	> 100 µM (inactive)	> 100 µM (inactive)	> 100 µM (inactive)	> 100 µM (inactive)
C=CCN1C(=O)C[C@H](Cc2ccccc2)NC(=O)C[C@H](Cc2ccccc2)N(CC=C)C(=O)C[C@H](Cc2ccccc2)NC(=O)C[C@@H]1Cc1ccccc1	5.15 µM (inactive)	6.73 µM (inactive)		2.76 µM (inactive)	5.16 µM (inactive)	0.942 µM (active)	5.42 µM (inactive)	87.7 µM (inactive)	8.09 µM (inactive)	12.2	> 100 µM (inactive)	> 100 µM (inactive)		14 µM (inactive)	6.34 µM (inactive)	3.92 µM (inactive)	34 µM (inactive)	20 µM (inactive)	61.9 µM (inactive)	7.01 µM (inactive)
NC(=O)CNC(=O)[C@@H]1CC(OCCC(=O)O)CN1C(=O)C1CCCN1C(=O)OCc1ccccc1 (stereo partly drawn)		> 100 µM (inactive)		> 100 µM (inactive)	> 100 µM (inactive)	2.74 µM (inactive)	> 100 µM (inactive)	> 100 µM (inactive)	> 100 µM (inactive)	> 100	> 100 µM (inactive)	> 100 µM (inactive)	> 100 µM (inactive)	> 100 µM (inactive)	> 100 µM (inactive)	> 100 µM (inactive)	> 100 µM (inactive)	> 100 µM (inactive)	> 100 µM (inactive)	> 100 µM (inactive)
COc1ccc(C2(CC(C)C)CCN(S(=O)(=O)c3ccc(C)cc3)C2)cc1OC (stereo not drawn)	> 100 µM (inactive)	20.7 µM (inactive)	27.6 µM (inactive)		1.11 µM (active)	76.9 µM (inactive)	29.2 µM (inactive)	18.9 µM (inactive)	34.8 µM (inactive)	31.7	> 100 µM (inactive)	36 µM (inactive)	25.8 µM (inactive)	22.5 µM (inactive)	43.9 µM (inactive)	36.9 µM (inactive)	36.9 µM (inactive)	50.2 µM (inactive)	30.1 µM (inactive)	
CC(C)=CCC/C(C)=C/CC/C(C)=C/CC/C(C)=C/C=C/C=C(\C)CC/C=C(\C)CC/C=C(\C)CCC=C(C)C	16.8 µM (inactive)	> 100 µM (inactive)	> 100 µM (inactive)	38.4 µM (inactive)		32.3 µM (inactive)	34.8 µM (inactive)	> 100 µM (inactive)	> 100 µM (inactive)	> 100	> 100 µM (inactive)	> 56.9 µM (inactive)	14.8 µM (inactive)	> 100 µM (inactive)	> 100 µM (inactive)	> 71.6 µM (inactive)	> 100 µM (inactive)	17.5 µM (inactive)	> 100 µM (inactive)	> 100 µM (inactive)
Cc1nn2c(N)cc(=O)nc2nc1/C=C/c1ccc(N(C)C)cc1	3.45 µM (inactive)	> 49.2 µM (inactive)	3.18 µM (inactive)	10.1 µM (inactive)	> 100 µM (inactive)	7.23 µM (inactive)	6.89 µM (inactive)		> 28 µM (inactive)		17.5 µM (inactive)	> 100 µM (inactive)	1.66 µM (inactive)	> 66.5 µM (inactive)	5.02 µM (inactive)		> 100 µM (inactive)	16.6 µM (inactive)	> 84.5 µM (inactive)	
CC(=O)OCCOCn1c2c(c(=S)[nH]c1=O)CCC2	> 100 µM (inactive)	> 100 µM (inactive)	> 100 µM (inactive)	> 100 µM (inactive)	> 100 µM (inactive)	> 100 µM (inactive)		> 100 µM (inactive)	> 100 µM (inactive)	> 100	> 100 µM (inactive)	> 100 µM (inactive)	> 100 µM (inactive)	> 100 µM (inactive)		> 100 µM (inactive)		> 100 µM (inactive)	> 100 µM (inactive)	
CCn1c2ccccc2c2nnc(NCCCO)nc21	> 100 µM (inactive)	> 100 µM (inactive)		> 100 µM (inactive)	92.5 µM (inactive)	28 µM (inactive)	> 100 µM (inactive)	> 100 µM (inactive)	> 100 µM (inactive)	> 100	> 100 µM (inactive)	> 100 µM (inactive)	> 100 µM (inactive)	> 100 µM (inactive)	> 100 µM (inactive)	44.1 µM (inactive)	> 100 µM (inactive)	> 100 µM (inactive)	> 100 µM (inactive)	> 100 µM (inactive)
COCCN(CCNC(=O)c1cccc2c(N)c3cccc(C)c3nc12)CCOC	0.528 µM (active)	5.36 µM (inactive)	0.294 µM (active)	1.12 µM (active)		1.31 µM (inactive)	0.302 µM (active)	2 µM (inactive)	1.37 µM (inactive)	1.82	2.2 µM (inactive)	1.28 µM (inactive)	0.165 µM (active)	1.03 µM (active)	2.94 µM (inactive)	1.17 µM (inactive)	5.16 µM (inactive)	0.571 µM (active)	7.35 µM (inactive)	2.78 µM (inactive)
